From ChEMBL document CHEMBL4680275, “From Seeds of Apium graveolens Linn. to a Cerebral Ischemia Medicine: The Long Journey of 3-n-Butylphthalide” (J Med Chem, 2020)

Assay: Antioxidant activity assessed as hydroxyl radical scavenging activity incubated for 60 mins in water bath by Fenton reaction-based method
Assay type: functional

Row | IC50 | SMILES
1 | 2.87 mM | CCCCC1OC(=O)c2cc(N3N=C(C)CC3=O)ccc21 (racemic)
2 | 3.57 mM | CC1=NN(c2ccccc2)C(=O)C1 [EDARAVONE]
